Results published in US20130023532A1, “INDAZOLYL-PYRIMIDINES AS KINASE INHIBITORS” (priority 2010, published 2013).
Where a name gives a salt, the structure may show the parent alone.

Target: T1, RIPK2 (Homo sapiens, UniProt O43353)
T1 construct: Full length FLAG His tagged RIPK2 was purified from a Baculovirus expression system; FLAG (N); 6His (N); made in house; host or cells: Spodoptera frugiperda (Sf9) insect cells, baculovirus
Test: Fluorescent polarization based binding assay at the ATP binding pocket of RIPK2
Conditions: FP competition with fluorescently labeled ATP competitive ligand (5 nM); full length FLAG His tagged RIPK2; mean of a minimum of 2 experiments; read-out: mean pIC50 (converted)
From the text: A fluorescent polarization based binding assay was developed to quantitate interaction of novel test compounds at the ATP binding pocket of RIPK2, by competition with a fluorescently labeled ATP competitive ligand. Full length FLAG His tagged RIPK2 was purified from a Baculovirus expression system and was used at a final assay concentration of twice the KDapparent. A fluorescent labeled ligand (5-({[2-({[3-({4-[(5-hydroxy-2-methylphenyl)amino]-2-pyrimidinyl}amino)phenyl]carbonyl}amino)ethyl]amino}carbonyl)-2-(6-hydroxy-3-oxo-3H-xanthen-9-yl)benzoic acid, prepared as described below) was used at a final assay concentration of 5 nM. Both the enzyme and ligand were prepared in solutions in 50 mM HEPES pH7.5, 150 mM NaCl, 10 mM MgCl2, 1 mM DTT, and 1 mM CHAPS. Test compounds were prepared in 100% DMSO and 100 nL was dispensed to individual wells of a multiwell plate. Next, 5 ul RIPK2 was added to the test compounds at twice the final assay concentration, and incubated at room temperature for 10 minutes. […] Finally, samples were read on an instrument capable of measuring fluorescent polarization. Test compound inhibition was expressed as percent (%) inhibition of internal assay controls.
For concentration response experiments, normalized data were fit and pIC50 s determined using conventional techniques. […]

T1 sequence (O43353 whole entry): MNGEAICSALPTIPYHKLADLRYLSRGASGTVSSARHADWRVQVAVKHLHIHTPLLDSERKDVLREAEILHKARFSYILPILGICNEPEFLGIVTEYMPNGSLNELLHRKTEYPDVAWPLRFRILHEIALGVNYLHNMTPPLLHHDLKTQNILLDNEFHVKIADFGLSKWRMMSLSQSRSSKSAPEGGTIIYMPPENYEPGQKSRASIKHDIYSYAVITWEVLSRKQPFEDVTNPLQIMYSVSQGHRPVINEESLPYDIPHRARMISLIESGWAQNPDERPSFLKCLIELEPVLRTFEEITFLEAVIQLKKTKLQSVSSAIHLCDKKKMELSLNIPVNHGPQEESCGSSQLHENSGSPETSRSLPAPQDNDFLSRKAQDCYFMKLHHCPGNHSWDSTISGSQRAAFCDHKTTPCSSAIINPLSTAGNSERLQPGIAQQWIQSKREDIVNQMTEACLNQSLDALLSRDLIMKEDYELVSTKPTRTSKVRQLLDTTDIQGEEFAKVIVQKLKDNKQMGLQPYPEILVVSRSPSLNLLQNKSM

IC50 | SMILES
7.94 nM | COc1ccc2[nH]nc(Nc3ccnc(Nc4cc(OC)c(OC)c(OC)c4)n3)c2c1 [Example 12, N^4-[5-(methyloxy)-1H-indazol-3-yl]-N^2-[3,4,5-tris(methyloxy)phenyl]-2,4-pyrimidinediamine]
50.1 nM | COc1ccc2[nH]nc(Nc3ccnc(Nc4ccc(F)c(S(C)(=O)=O)c4)n3)c2c1 [Example 27, N^2-[4-fluoro-3-(methylsulfonyl)phenyl]-N^4-[5-(methyloxy)-1H-indazol-3-yl]-2,4-pyrimidinediamine trifluoroacetate]
